The record followed here is US20240246964A1 (Arbutus Biopharma Corporation, priority 2021, published 2024).

By EC50 is commonly meant the concentration giving half of the maximal effect. A higher EC50 goes with a need for much substance.

Structures are written as SMILES.

The target of the assay is human PD-L1 (Homo sapiens (Human), UniProt Q9NZQ7). The experiment in a line: T cell activation luciferase reporter cell culture system (T Cell Activation Assay). The format is cell-based. The note with it: luciferase reporter assay; PD-L1 aAPC/CHO-K1 cells with PD-1 effector Jurkat T cells. Background: Reporter assays use an easily measured gene product as a stand-in for the process of interest.
Chain of human PD-L1 (Q9NZQ7 19-290): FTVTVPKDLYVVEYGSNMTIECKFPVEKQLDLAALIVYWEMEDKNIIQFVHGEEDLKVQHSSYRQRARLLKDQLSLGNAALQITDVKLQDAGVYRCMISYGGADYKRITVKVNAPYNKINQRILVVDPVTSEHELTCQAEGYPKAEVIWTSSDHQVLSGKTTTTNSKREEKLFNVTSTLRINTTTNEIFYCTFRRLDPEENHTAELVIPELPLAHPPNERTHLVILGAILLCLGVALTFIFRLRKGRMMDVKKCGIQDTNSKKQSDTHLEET
`COc1nc(-c2cccc(-c3ccnc(-c4cc(OC)c5nc(CN(C)CCO)nn5c4)c3Cl)c2Cl)ccc1CNC1CCN(C(C)=O)CC1` [Example 715, 1-(4-(((6-(2-Chloro-3-(3-chloro-2-(2-(((2-hydroxyethyl)(methyl)amino)methyl)-8-methoxy-[1,2,4]triazolo[1,5-a]pyridin-6-yl)pyridin-4-yl)phenyl)-2-methoxypyridin-3-yl)methyl)amino)piperidin-1-yl)ethan-1-one] showed a concentration giving a half-maximal response (EC50) of 581 nM.
`COc1nc(-c2cccc(-c3ccnc(-c4cc(Cl)c5c(c4)CCN(C[C@@H]4CCC(=O)N4)C5)c3Cl)c2Cl)ccc1CNC[C@@H]1CCC(=O)N1` [Cmpd 67, (S)-5-((((6-(2-chloro-3-(3-chloro-2-(8-chloro-2-(((S)-5-oxopyrrolidin-2-yl)methyl)-1,2,3,4-tetrahydroisoquinolin-6-yl)pyridin-4-yl)phenyl)-2-methoxypyridin-3-yl)methyl)amino)methyl)pyrrolidin-2-one] had a 50% effective concentration (EC50) of 101 nM.
To `COc1cc(-c2nccc(-c3cccc(-c4ccc(CNC[C@@H]5CCC(=O)N5)c(OC)n4)c3Cl)c2Cl)cc2c1CN(CC1CCN(C(C)=O)CC1)CC2` [Cmpd 62, (S)-5-((((6-(3-(2-(2-((1-acetylpiperidin-4-yl)methyl)-8-methoxy-1,2,3,4-tetrahydroisoquinolin-6-yl)-3-chloropyridin-4-yl)-2-chlorophenyl)-2-methoxypyridin-3-yl)methyl)amino)methyl)pyrrolidin-2-one] belongs 27 nM; to `COc1cc(-c2nccc(-c3cccc4c3CCC[C@@H]4Nc3nc(OC)c(CNC4(C(=O)O)CC4)cc3C(F)(F)F)c2Cl)ccc1CNC[C@@H]1CCC(=O)N1` [Example 705, 1-(((6-(((S)-5-(3-Chloro-2-(3-methoxy-4-(((((S)-5-oxopyrrolidin-2-yl)methyl)amino)methyl)phenyl)pyridin-4-yl)-1,2,3,4-tetrahydronaphthalen-1-yl)amino)-2-methoxy-5-(trifluoromethyl)pyridin-3-yl)methyl)amino)cyclopropane-1-carboxylic acid], at least 10000 nM.
Under `COc1cc(-c2nccc(-c3cccc(-c4ccc(CNCC(F)F)c(OC)n4)c3Cl)c2Cl)ccc1CNCC(F)F` [Example 505, N-((6-(2-Chloro-3-(3-chloro-2-(4-(((2,2-difluoroethyl)amino)methyl)-3-methoxyphenyl)pyridin-4-yl)phenyl)-2-methoxypyridin-3-yl)methyl)-2,2-difluoroethan-1-amine] stands at least 10000 nM.
To `COc1cc(-c2nccc(-c3cccc(-c4ccc(CN[C@H]5CC[C@H](O)CC5)c(OC)n4)c3Cl)c2Cl)ccc1CN[C@H]1CC[C@H](O)CC1` [Example 364, (1r,4r)-4-(((6-(2-Chloro-3-(3-chloro-2-(4-((((1r,4r)-4-hydroxycyclohexyl)amino)methyl)-3-methoxyphenyl)pyridin-4-yl)phenyl)-2-methoxypyridin-3-yl)methyl)amino)cyclohexan-1-ol] belongs 28.5 nM.
The compound `COc1cc(-c2nccc(-c3cccc(-c4ccc(CNC[C@@H]5CCC(=O)N5)c(OC)n4)c3Cl)c2Cl)ccc1CNC[C@@H]1CCC(=O)N1` [Cmpd 8, (S)-5-((((6-(2-chloro-3-(3-chloro-2-(3-methoxy-4-(((((S)-5-oxopyrrolidin-2-yl)methyl)amino)methyl)phenyl)pyridin-4-yl)phenyl)-2-methoxypyridin-3-yl)methyl)amino)methyl)pyrrolidin-2-one] came in with an EC50 of 15 nM.
Under `COc1nc(-c2cccc(-c3ccnc(-c4cc(OC)c5nc(CN6CC7(CCC(=O)N7)C6)cn5c4)c3Cl)c2Cl)ccc1CN1CC2(CCC(=O)N2)C1` [Example 454, 2-((6-(2-Chloro-3-(3-chloro-2-(8-methoxy-2-((6-oxo-2,5-diazaspiro[3.4]octan-2-yl)methyl)imidazo[1,2-a]pyridin-6-yl)pyridin-4-yl)phenyl)-2-methoxypyridin-3-yl)methyl)-2,5-diazaspiro[3.4]octan-6-one] stands 203 nM; under `COc1nc(-c2cccc(-c3ccnc(-c4ccc(CNC5CCN(C(C)=O)CC5)c(OC(F)F)c4)c3Cl)c2Cl)ccc1CN1CC2(C1)CN(C(C)=O)C2` [Example 690, 1-(4-((4-(4-(3-(5-((6-Acetyl-2,6-diazaspiro[3.3]heptan-2-yl)methyl)-6-methoxypyridin-2-yl)-2-chlorophenyl)-3-chloropyridin-2-yl)-2-(difluoromethoxy)benzyl)amino)piperidin-1-yl)ethan-1-one], 42.2 nM; under `COc1cc(-c2nccc(-c3cccc(-c4cc(Cl)c(CNC[C@@H]5CCC(=O)N5)c(OC)n4)c3Cl)c2Cl)cc2c1CN(C[C@H](C)O)CC2` [Cmpd 86, (S)-5-((((4-chloro-6-(2-chloro-3-(3-chloro-2-(2-((S)-2-hydroxypropyl)-8-methoxy-1,2,3,4-tetrahydroisoquinolin-6-yl)pyridin-4-yl)phenyl)-2-methoxypyridin-3-yl)methyl)amino)methyl)pyrrolidin-2-one], 27.5 nM.
To `COc1cc(-c2nccc(-c3cccc(-c4ccc(CN5CC6(CCNC6=O)C5)c(OC)n4)c3Cl)c2Cl)ccc1CNC1CCN(C(C)=O)CC1` [Example 525, 2-((6-(3-(2-(4-(((1-Acetylpiperidin-4-yl)amino)methyl)-3-methoxyphenyl)-3-chloropyridin-4-yl)-2-chlorophenyl)-2-methoxypyridin-3-yl)methyl)-2,6-diazaspiro[3.4] octan-5-one] belongs 56.7 nM.
Under `COc1cc(-c2nccc(-c3cccc(NC(=O)c4ccc(CNC[C@@H]5CCC(=O)N5)cn4)c3C)c2Cl)ccc1CNC1CCOCC1` [Example 748, (S)—N-(3-(3-chloro-2-(3-methoxy-4-(((tetrahydro-2H-pyran-4-yl)amino)methyl)phenyl)pyridin-4-yl)-2-methylphenyl)-5-((((5-oxopyrrolidin-2-yl)methyl)amino)methyl)picolinamide] stands 1000 nM; under `COc1nc(-c2cccc(-c3ccnc(-c4ccc5c(CNC6CCN(C(C)=O)CC6)cn(C)c5c4)c3Cl)c2Cl)ccc1CNC1CCN(C(C)=O)CC1` [Cmpd 277, 1-(4-(((6-(3-(2-(3-(((1-acetylpiperidin-4-yl)amino)methyl)-1-methyl-1H-indol-6-yl)-3-chloropyridin-4-yl)-2-chlorophenyl)-2-methoxypyridin-3-yl)methyl)amino)piperidin-1-yl)ethan-1-one], 170 nM; under `COc1cc(-c2nccc(-c3cccc(-c4ccc(CN5CCC(OC)CC5)c(OC)n4)c3Cl)c2Cl)ccc1CN1CCC(OC)CC1` [Example 447, 3-Chloro-4-(2-chloro-3-(6-methoxy-5-((4-methoxypiperidin-1-yl)methyl)pyridin-2-yl)phenyl)-2-(3-methoxy-4-((4-methoxypiperidin-1-yl)methyl)phenyl)pyridine], 61.3 nM.
Turning to `COc1cc(-c2nccc(-c3cccc(-c4ccc(CN5CCC(O)CC5)c(OC)n4)c3Cl)c2Cl)ccc1CN1CCC(O)CC1` [Example 412, 1-((6-(2-Chloro-3-(3-chloro-2-(4-((4-hydroxypiperidin-1-yl)methyl)-3-methoxyphenyl)pyridin-4-yl)phenyl)-2-methoxypyridin-3-yl)methyl)piperidin-4-ol], the response was half-maximal at 15.7 nM (EC50).
To `COc1nc(-c2cccc(-c3ccnc(-c4ccc(CN5CC6(C5)CN(C(C)=O)C6)c(OC(F)F)c4)c3Cl)c2Cl)ccc1CN1CC2(C1)CN(C(C)=O)C2` [Example 598, 1-(6-((6-(3-(2-(4-((6-Acetyl-2,6-diazaspiro[3.3]heptan-2-yl)methyl)-3-(difluoromethoxy)phenyl)-3-chloropyridin-4-yl)-2-chlorophenyl)-2-methoxypyridin-3-yl)methyl)-2,6-diazaspiro[3.3]heptan-2-yl)ethan-1-one] belongs 36.8 nM.
To `COCC(=O)N1CC2(CN(Cc3ccc(-c4cccc(-c5ccnc(-c6ccc(CN7CC8(C7)CN(C(C)=O)C8)c(OC)c6)c5Cl)c4Cl)nc3OC)C2)C1` [Example 691, 1-(6-((6-(3-(2-(4-((6-Acetyl-2,6-diazaspiro[3.3]heptan-2-yl)methyl)-3-methoxyphenyl)-3-chloropyridin-4-yl)-2-chlorophenyl)-2-methoxypyridin-3-yl)methyl)-2,6-diazaspiro[3.3]heptan-2-yl)-2-methoxyethan-1-one] belongs 67.6 nM; to `COc1cc(-c2nccc(-c3cccc(-c4cc(Cl)c(CNC[C@@H]5CCC(=O)N5)c(OC)n4)c3Cl)c2Cl)cc2c1CN(C[C@@H]1CCC(=O)N1)CC2` [Cmpd 37, (S)-5-((6-(3-chloro-4-(2-chloro-3-(4-chloro-6-methoxy-5-(((((S)-5-oxopyrrolidin-2-yl)methyl)amino)methyl)pyridin-2-yl)phenyl)pyridin-2-yl)-8-methoxy-3,4-dihydroisoquinolin-2(1H)-yl)methyl)pyrrolidin-2-one], 25.6 nM.
In turn, `COc1nc(-c2cccc(-c3ccnc(-c4ccc(CN5CC6(C5)CN(C(C)=O)C6)c(OC(F)F)c4)c3Cl)c2Cl)ccc1CNC1CCOCC1` [Example 663, 1-(6-(4-(3-Chloro-4-(2-chloro-3-(6-methoxy-5-(((tetrahydro-2H-pyran-4-yl)amino)methyl)pyridin-2-yl)phenyl)pyridin-2-yl)-2-(difluoromethoxy)benzyl)-2,6-diazaspiro[3.3]heptan-2-yl)ethan-1-one] returned an EC50 of 39.9 nM.
Under `COc1cc(-c2nccc(-c3cccc(-c4ccc(CNC5CCN(C(C)=O)CC5)c(OC)n4)c3Cl)c2Cl)ccc1CNCCCF` [Example 537, 1-(4-(((6-(2-Chloro-3-(3-chloro-2-(4-(((3-fluoropropyl)amino)methyl)-3-methoxyphenyl)pyridin-4-yl)phenyl)-2-methoxypyridin-3-yl)methyl)amino)piperidin-1-yl)ethan-1-one] stands 41.6 nM; under `COc1cc(-c2nccc(-c3cccc(NC(=O)c4ccc(CNCCO)cn4)c3C)c2Cl)ccc1CN1CC2(CNC(=O)C2)C1` [Example 744, N-(3-(3-Chloro-2-(3-methoxy-4-((7-oxo-2,6-diazaspiro[3.4]octan-2-yl)methyl)phenyl)pyridin-4-yl)-2-methylphenyl)-5-(((2-hydroxyethyl)amino)methyl)picolinamide], 154 nM.
